Measured values reported in ChEMBL document CHEMBL5113545, “Selective Cyclin-Dependent Kinase Inhibitors and Their Application in Cancer Therapy” (ACS Med Chem Lett, 2022).

target: Cyclin-dependent kinase 2/cyclin E1 (Homo sapiens, UniProt P24941); assay: Inhibition of human full length recombinant C-terminal 6His-tagged CDK2/N-terminal GST-tagged cyclin E1 expressed in baculovirus-infected Sf21 cells using 5-FAM- QSPKKG peptide as substrate preincubated with enzyme and ATP for 30 mins followed by substrate addition and measured after 20 hrs by fluorescence- based microfluidic mobility shift assay

IC50, ≤ 0.1 µM:
Cc1ncc(CC(=O)Nc2cc([C@H]3CC[C@@H](OC(=O)NC(C)C)C3)[nH]n2)s1
CC(C)NC(=O)O[C@@H]1CC[C@H](c2cc(NC(=O)c3ccnn3C)n[nH]2)C1
CC1(NC(=O)O[C@@H]2CC[C@H](c3cc(NC(=O)Cc4ccccc4)n[nH]3)C2)CC1
CC(C)NC(=O)O[C@@H]1CC[C@H](c2cc(NC(=O)Cc3ccccc3)n[nH]2)C1
CC(C)NC(=O)O[C@@H]1CC[C@H](c2cc(NC(=O)c3ccnc4ncsc34)n[nH]2)C1
CC1(NC(=O)O[C@H]2CC[C@@H](c3cc(NC(=O)Cc4ccccc4)n[nH]3)C2)CC1
Cc1cc(CC(=O)Nc2cc([C@H]3CCC[C@@H](OC(=O)NC4(C)CC4)CC3)[nH]n2)on1
COCc1cc(C(=O)Nc2cc([C@H]3CC[C@@H](OC(=O)N(C)C(C)C)C3)[nH]n2)n(C)n1
CC(C)NC(=O)O[C@H]1CC[C@@H](c2cc(NC(=O)c3ccnn3C)n[nH]2)C1
CC(C)NC(=O)O[C@@H]1CC[C@H](c2cc(NC(=O)Cc3ccccc3S(C)(=O)=O)n[nH]2)C1
COc1cc(CC(=O)Nc2cc([C@H]3CC[C@@H](OC(=O)NC(C)C)C3)[nH]n2)ccn1
Cc1cc(CC(=O)Nc2cc([C@H]3CC[C@@H](OC(=O)N4CCC4(C)C)C3)[nH]n2)on1
